Results from article PMC9607427, “Novel 7-Chloro-(4-thioalkylquinoline) Derivatives: Synthesis and Antiproliferative Activity through Inducing Apoptosis and DNA/RNA Damage” (Pharmaceuticals, 2022).
Like-named read-outs stand apart in the source and are kept apart here.

Tests used:
[1] = test system: CEM-DNR bulk (daunorubicin-resistant subline of CCRF-CEM cells); assay: Cytotoxic MTS assay, CEM-DNR; format: cell-based, human
Experimental: (§1) In vitro cytotoxic activity of final compounds 5–82 was evaluated after 3 days of incubation against eight cell lines derived from human solid tumors including lung (A549 cells) and colon (HCT116 and HCT116p53−/−) carcinomas, as well as leukemia cell lines (CCRF-CEM, CEM-DNR, K562, and K562-TAX) and osteosarcoma (U2OS cells). For comparison, non-malignant BJ and MRC-5 fibroblasts, and BJLD and MCR-5LD fibroblasts doxorubicin-resistant cell lines were used. Concentrations inhibiting the cell growth by 50% (IC50) were determined using a quantitative metabolic staining with 3-(4,5-dimethylthiazol-2yl)-5-(3-carboxymethoxyphenyl)-2-(4-sulfophenyl)-2H-tetrazolium (MTS) and are summarized in (Table 3).
(§2) Cytotoxic activity was determined by MTS assay following 72 h of incubation. IC50 is the lowest concentration that kills 50% of cells. The standard deviation in cytotoxicity assays is typically up to 20% of the average value. […] The tested cell lines: A549 (lung adenocarcinoma), BJ (noncancerous human fibroblasts from foreskin), BJLD (human lung fibroblast doxorubicin-resistant), CCRF-CEM (childhood T cell acute lymphoblastic leukemia), a daunorubicin-resistant subline of CCRF-CEM cells (CEM-DNR bulk), HCT116 (colorectal carcinoma), HCT116p53−/− (HCT116 with deleted p53 gene), K562 (chronic myeloid leukemia), K562-TAX (chronic myeloid leukemia paclitaxel-resistant subline), MRC-5 (noncancerous human lung fibroblasts), MRC-5LD (noncancerous human lung fibroblasts doxorubicin-resistant), and U2OS (osteosarcoma).
(§3) All cell lines were purchased from the American Tissue Culture Collection (ATCC). The A549 cell line is lung adenocarcinoma. MRC-5 and BJ cell lines were used as a non-tumor control and represent human fibroblasts. (MRC-5 LD and BJLD) are doxorubicin-resistant human lung fibroblast cell lines. The CCRF-CEM line is derived from T lymphoblastic leukemia, evincing high chemosensitivity, whereas K562 represent cells from an […] patient sample with bcr-abl translocation. The daunorubicin-resistant subline of CCRF-CEM cells (CEM-DNR bulk) and paclitaxel-resistant subline K562-TAX were selected in our laboratory by the cultivation of maternal cell lines in increasing concentrations of daunorubicin or paclitaxel, respectively. The CEM-DNR bulk cells overexpress MRP-1 and P-glycoprotein protein, whereas K562-TAX cells overexpress P-glycoprotein only. Both proteins belong to the family of ABC transporters and are involved in the primary and/or acquired multidrug-resistance phenomenon. The U2OS cell line is derived from osteosarcoma, HCT116 is a colorectal tumor cell line and its p53 gene knock-down counterpart (HCT116p53−/−, Horizon Discovery Ltd., Cambridge, UK) is a model of human cancers with p53 mutation frequently associated with poor prognosis. The cells were maintained in nunc/corning 80 cm^2 plastic tissue culture flasks and cultured in a cell culture medium according to ATCC or Horizon recommendations (DMEM/RPMI 1640 with 5 g/L glucose, 2 mM glutamine, 100 U/mL penicillin, […], 10% fetal calf serum, and NaHCO3).
(§4) The activity of compounds was determined using a standard 3-(4,5-dimethylthiazol-2-yl)-5-(3-carboxymethoxyphenyl)-2-(4-sulfophenyl)-2H-tetrazolium (MTS) and it was performed at the Institute of Molecular and Translational Medicine by a robotic platform (High-ResBiosolutions). Cell suspensions were prepared and diluted according to the particular cell type and the expected target cell density (25,000–35,000 cells/mL based on cell growth characteristics). Cells were added by automatic pipettor (30 µL) into 384-well microtiter plates. All tested compounds were dissolved in 100% DMSO and four-fold dilutions of the intended test concentration were added in 0.15 µL aliquots at time zero to the microtiter plate wells by the echo acoustic non-contact liquid handler Echo550 (Labcyte). […]

[2] = test system: BJLD (human lung fibroblast doxorubicin-resistant); assay: Cytotoxic MTS assay, BJLD; format: cell-based
Experimental: as §1, §2, §3, §4

[3] = test system: HCT116 (colorectal carcinoma); assay: Cytotoxic MTS assay, HCT116; format: cell-based, human
Experimental: as §1, §2, §3, §4

[4] = test system: K562-TAX (chronic myeloid leukemia paclitaxel-resistant subline); assay: Cytotoxic MTS assay, K562-TAX; format: cell-based, human
Experimental: as §1, §2, §3, §4

[5] = test system: A549 (lung adenocarcinoma); assay: Cytotoxic MTS assay, A549; format: cell-based, human
Experimental: as §1, §2, §3, §4

[6] = test system: U2OS (osteosarcoma); assay: Cytotoxic MTS assay, U2OS; format: cell-based, human
Experimental: as §1, §2, §3, §4

[7] = test system: K562 (chronic myeloid leukemia); assay: Cytotoxic MTS assay, K562; format: cell-based, human
Experimental: as §1, §2, §3, §4

[8] = test system: BJ (noncancerous human fibroblasts from foreskin); assay: Cytotoxic MTS assay, BJ; format: cell-based
Experimental: as §1, §2, §3, §4

[9] = test system: HCT116p53−/− (HCT116 with deleted p53 gene); assay: Cytotoxic MTS assay, HCT116p53−/−; format: cell-based, human
Experimental: as §1, §2, §3, §4

[10] = test system: MRC-5 (noncancerous human lung fibroblasts); assay: Cytotoxic MTS assay, MRC-5; format: cell-based
Experimental: as §1, §2, §3, §4

[11] = test system: MRC-5LD (noncancerous human lung fibroblasts doxorubicin-resistant); assay: Cytotoxic MTS assay, MRC-5LD; format: cell-based
Experimental: as §1, §2, §3, §4

[12] = test system: CCRF-CEM (childhood T cell acute lymphoblastic leukemia); assay: Cytotoxic MTS assay, CCRF-CEM; format: cell-based, human
Experimental: as §1, §2, §3, §4

[13] = Cytotoxic MTS assay, BJLD; format: cell-based, human; conditions: human, BJLD cells (fibroblasts, doxorubicin-resistant); MTS, 72 h of incubation
Experimental: as §1, §2, §3, §4

[14] = Cytotoxic MTS assay, BJ; format: cell-based, human; conditions: human, BJ cells (noncancerous foreskin fibroblasts); MTS, 72 h of incubation
Experimental: as §1, §2, §3, §4

[15] = Cytotoxic MTS assay, MRC-5; format: cell-based, human; conditions: human, MRC-5 cells (noncancerous lung fibroblasts); MTS, 72 h of incubation
Experimental: as §1, §2, §3, §4

[16] = Cytotoxic MTS assay, MRC-5LD; format: cell-based, human; conditions: human; MTS, 72 h of incubation; read-out: Cytotoxic activity IC50, MRC5-LD
Experimental: as §1, §2, §3, §4

[17] = Homo sapiens, CEM-DNR, MTS, 72 h of incubation, read-out: Cytotoxic activity IC50, CEM-DNR
[18] = Homo sapiens, HCT-116, MTS, 72 h of incubation, read-out: Cytotoxic activity IC50, HCT116
[19] = Homo sapiens, K562-Tax, MTS, 72 h of incubation, read-out: Cytotoxic activity IC50, K562-TAX
[20] = Homo sapiens, A549, MTS, 72 h of incubation, read-out: Cytotoxic activity IC50, A549
[21] = Homo sapiens, U2OS, MTS, 72 h of incubation, read-out: Cytotoxic activity IC50, U2OS
[22] = Homo sapiens, K562, MTS, 72 h of incubation, read-out: Cytotoxic activity IC50, K562
[23] = Homo sapiens, HCT-116, MTS, 72 h of incubation, read-out: Cytotoxic activity IC50, HCT116-p53
[24] = Homo sapiens, CCRF-CEM, MTS, 72 h of incubation, read-out: Cytotoxic activity IC50, CCRF-CEM

SMILES	IC50 [1]	IC50 [2]	IC50 [3]	IC50 [4]	IC50 [5]	IC50 [6]	IC50 [7]	IC50 [8]	IC50 [9]	IC50 [10]	IC50 [11]	IC50 [12]	IC50 [1, 17]	IC50 at 72 h [13]	IC50 [3, 18]	IC50 [4, 19]	IC50 [5, 20]	IC50 [6, 21]	IC50 [7, 22]	IC50 at 72 h [14]	also measured
COc1ccc(OC)c(C(=O)OCCCS(=O)(=O)c2cc[n+]([O-])c3cc(Cl)ccc23)c1 [Compound 75, 3-[(N-Oxide 7-chloroquinolin-4-yl)sulfonyl]propyl-2,5-dimethoxybenzoate]	7.22 µM	17.8 µM	5.37 µM	9.56 µM	7.28 µM	6.4 µM	7.14 µM	26.6 µM	6.86 µM	21.5 µM	18.9 µM	1450 nM	–	–	–	–	–	–	–	–	–
Cc1ccc([N+](=O)[O-])c(C(=O)OCCCS(=O)(=O)c2cc[n+]([O-])c3cc(Cl)ccc23)c1 [Compound 80, 3-[(N-Oxide 7-chloroquinolin-4-yl)sulfonyl]propyl-5-methyl-2-nitrobenzoate]	6.78 µM	15.9 µM	4.61 µM	6 µM	6.44 µM	5.74 µM	6.75 µM	22.2 µM	6 µM	20 µM	16.3 µM	1490 nM	–	–	–	–	–	–	–	–	–
COc1ccc(C(=O)OCCC[S+]([O-])c2ccnc3cc(Cl)ccc23)cc1 (stereo not drawn) [Compound 53, 3-[(7-Chloroquinolin-4-yl)sulfinyl]propyl-4-methoxybenzoate]	–	–	–	–	–	–	–	–	–	–	–	–	8.71 µM	28.2 µM	12.5 µM	6.98 µM	23.6 µM	12.8 µM	13.9 µM	30 µM	IC50 [9, 23]: 8.51 µM; IC50 at 72 h [15]: 27.9 µM; IC50 at 72 h [16]: 22.4 µM; IC50 [12, 24]: 1310 nM
O=C(OCCC[S+]([O-])c1ccnc2cc(Cl)ccc12)c1ccc(C(F)(F)F)cc1 (stereo not drawn) [Compound 62, 3-[(7-Chloroquinolin-4-yl)sulfinyl]propyl-4-(trifluoromethyl)benzoate]	–	–	–	–	–	–	–	–	–	–	–	–	10.5 µM	30.1 µM	15.7 µM	9.15 µM	26.1 µM	14.3 µM	17.6 µM	29.9 µM	IC50 [9, 23]: 9.61 µM; IC50 at 72 h [15]: 29.4 µM; IC50 at 72 h [16]: 25.9 µM; IC50 [12, 24]: 1170 nM
COc1cc(OC)c(C(=O)OCCCS(=O)(=O)c2cc[n+]([O-])c3cc(Cl)ccc23)cc1OC [Compound 76, 3-[(N-Oxide 7-chloroquinolin-4-yl)sulfonyl]propyl-2,4,5-trimethoxybenzoate]	18.1 µM	24.4 µM	7.96 µM	19.9 µM	11.4 µM	9.33 µM	8.77 µM	35.7 µM	8.66 µM	22.5 µM	19.6 µM	2220 nM	–	–	–	–	–	–	–	–	–
COc1cccc(C(=O)OCCS(=O)(=O)c2cc[n+]([O-])c3cc(Cl)ccc23)c1OC [Compound 64, 2-[(N-Oxide 7-chloroquinolin-4-yl)sulfonyl]ethyl-2,3-dimethoxybenzoate]	8.99 µM	8.95 µM	8.18 µM	5.65 µM	28.4 µM	7.43 µM	5.51 µM	9.19 µM	7.68 µM	6.08 µM	3.28 µM	710 nM	–	–	–	–	–	–	–	–	–
Cc1ccc([N+](=O)[O-])c(C(=O)OCCC[S+]([O-])c2ccnc3cc(Cl)ccc23)c1 (stereo not drawn) [Compound 60, 3-[(7-Chloroquinolin-4-yl)sulfinyl]propyl-5-methyl-2-nitrobenzoate]	–	–	–	–	–	–	–	–	–	–	–	–	7.27 µM	18.1 µM	7.77 µM	4.26 µM	9.55 µM	5.81 µM	8.86 µM	29 µM	IC50 [9, 23]: 6.06 µM; IC50 at 72 h [15]: 29.4 µM; IC50 at 72 h [16]: 19.8 µM; IC50 [12, 24]: 1130 nM
Cc1cc(C)cc(C(=O)OCC[S+]([O-])c2ccnc3cc(Cl)ccc23)c1 (stereo not drawn) [Compound 50, 2-[(7-Chloroquinolin-4-yl)sulfinyl]ethyl-3,5-dimethylbenzoate]	–	–	–	–	–	–	–	–	–	–	–	–	10 µM	28.5 µM	7.99 µM	9.58 µM	24 µM	8.57 µM	15.2 µM	30.8 µM	IC50 [9, 23]: 7.1 µM; IC50 at 72 h [15]: 26.9 µM; IC50 at 72 h [16]: 22.3 µM; IC50 [12, 24]: 1320 nM
COc1cc(C(=O)OCCCS(=O)(=O)c2cc[n+]([O-])c3cc(Cl)ccc23)cc(OC)c1OC [Compound 77, 3-[(N-Oxide 7-chloroquinolin-4-yl)sulfonyl]propyl-3,4,5-trimethoxybenzoate]	12 µM	21.6 µM	6.51 µM	10.9 µM	9.02 µM	7.81 µM	7.5 µM	28.6 µM	6.75 µM	25.6 µM	20.1 µM	1580 nM	–	–	–	–	–	–	–	–	–
COc1ccccc1C(=O)OCCCS(=O)(=O)c1cc[n+]([O-])c2cc(Cl)ccc12 [Compound 78, 3-[(N-Oxide 7-chloroquinolin-4-yl)sulfonyl]propyl-2-methoxybenzoate]	9.18 µM	19.7 µM	5.64 µM	8.78 µM	7.75 µM	7.18 µM	7.37 µM	25 µM	6.99 µM	22.6 µM	19.5 µM	2630 nM	–	–	–	–	–	–	–	–	–
O=C(OCCCS(=O)(=O)c1cc[n+]([O-])c2cc(Cl)ccc12)c1ccc(C(F)(F)F)cc1 [Compound 82, 3-[(N-Oxide 7-chloroquinolin-4-yl)sulfonyl]propyl-4-(trifluoromethyl)benzoate]	3.46 µM	13.9 µM	4.9 µM	4.01 µM	6.66 µM	5.05 µM	6.24 µM	23.5 µM	6.59 µM	23.7 µM	19.8 µM	1050 nM	–	–	–	–	–	–	–	–	–
